In article PMC10757017 (Heliyon, 2023):

Legend:
α-glucosidase [1] = target: T1, α-glucosidase (Saccharomyces cerevisiae, UniProt P53341); assay: α-Glucosidase inhibitory assay; type: biochemical
α-glucosidase [2] = target: T1, α-glucosidase; assay: Kinetic studies; type: biochemical; settings: for type of inhibition: Lineweaver-Burk plots, Km increases, Vmax constant

T1 sequence (P53341 whole entry): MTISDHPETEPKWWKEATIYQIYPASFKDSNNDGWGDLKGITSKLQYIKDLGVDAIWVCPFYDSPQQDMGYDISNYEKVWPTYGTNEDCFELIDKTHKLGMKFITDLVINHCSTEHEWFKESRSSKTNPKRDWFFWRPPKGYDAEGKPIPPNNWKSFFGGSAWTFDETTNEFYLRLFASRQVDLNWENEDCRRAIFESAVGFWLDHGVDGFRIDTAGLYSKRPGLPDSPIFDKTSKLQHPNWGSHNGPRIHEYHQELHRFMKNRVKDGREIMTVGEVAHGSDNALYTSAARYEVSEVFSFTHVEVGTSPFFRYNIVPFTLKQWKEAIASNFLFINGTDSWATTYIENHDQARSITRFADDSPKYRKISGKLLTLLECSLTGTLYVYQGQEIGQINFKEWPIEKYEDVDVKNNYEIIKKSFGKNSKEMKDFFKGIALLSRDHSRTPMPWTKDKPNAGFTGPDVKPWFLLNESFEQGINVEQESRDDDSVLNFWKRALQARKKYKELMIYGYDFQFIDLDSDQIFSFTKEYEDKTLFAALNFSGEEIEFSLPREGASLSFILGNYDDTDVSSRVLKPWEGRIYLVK

| Compound | IC50 (α-glucosidase [1]) | Ki (α-glucosidase [2]) | type of inhibition (α-glucosidase [2]) |
| --- | --- | --- | --- |
| CN(C)c1ccc(C(=NN=Cc2cccc(O)c2O)c2ccc(N(C)C)cc2)cc1 [Compound 4, 3-{[bis-(4-dimethylamino-phenyl)-methylene]-hydrazonomethyl}-benzene-1,2-diol] | 330 nM | – | – |
| COc1cccc(C=NN=C(c2ccc(N(C)C)cc2)c2ccc(N(C)C)cc2)c1O [Compound 9, 2-{[bis-(4-dimethylamino-phenyl)-methylene]-hydrazonomethyl}-6-methoxy-phenol] | 280 nM | 3640 ± 12 nM | competitive |
| CN(C)c1ccc(C(=NN=Cc2cc([N+](=O)[O-])ccc2O)c2ccc(N(C)C)cc2)cc1 [Compound 8, 2-{[bis-(4-dimethylamino-phenyl)-methylene]-hydrazonomethyl}-4-nitro-phenol] | 280 nM | 2790 ± 11 nM | competitive |
| CN(C)c1ccc(C(=NN=Cc2ccc(O)cc2O)c2ccc(N(C)C)cc2)cc1 [Compound 2, 4-{[bis-(4-dimethylamino-phenyl)-methylene]-hydrazonomethyl}-benzene-1,3-diol] | 680 ± 290 nM | – | – |
| CN(C)c1ccc(C(=NN=Cc2ccc(O)cc2)c2ccc(N(C)C)cc2)cc1 [Compound 26, 4-{[bis-(4-dimethylamino-phenyl)-methylene]-hydrazonomethyl}-phenol] | 820 ± 1120 nM | – | – |

Other lines, results leading:

| IC50 (α-glucosidase [1]) | Ki (α-glucosidase [2]) | type of inhibition (α-glucosidase [2]) | Compound |
| --- | --- | --- | --- |
| 350 nM | – | – | CN(C)c1ccc(C(=NN=Cc2ccc(O)c(O)c2)c2ccc(N(C)C)cc2)cc1 [Compound 17, 4-{[bis-(4-dimethylamino-phenyl)-methylene]-hydrazonomethyl}-benzene-1,2-diol] |
| 490 ± 1430 nM | – | – | CN(C)c1ccc(C(=NN=Cc2cccc(C=O)c2)c2ccc(N(C)C)cc2)cc1 [Compound 15, 3-{[bis-(4-dimethylamino-phenyl)-methylene]-hydrazonomethyl}-benzaldehyde] |
